Assays:
[1] = system: 26ds (ds26) (DNA, duplex) CAATCGGATCGAATTCGATCCGATTG; assay: spectrofluorimetric titration, one-site saturation fit; conditions: 60 mM K+; K-cacodylate pH 7.4, 25 °C; 1 μM compound; SD ≤ 0.2 × 10^6
KRAS mRNA in SW620 cells = assay: KRAS mRNA steady-state levels, Taqman real-time RT-PCR, SW620; format: cell-based, human; conditions: equitoxic (IC50) concentrations, 72 h
Protocol: The effects of compounds on KRAS transcription in colon cancer cells (HCT116 and SW620) were evaluated by quantifying KRAS mRNA steady-state levels using Taqman real-time RT-PCR.
(a) KRAS mRNA steady-state expression was evaluated by Taqman Real-time RT-PCR using specific Taqman Assays for KRAS and β-Actin for normalization. KRAS mRNA steady-state expression levels were calculated by the ΔΔCt method, using DMSO (vehicle control) for calibration; and (b) KRAS protein steady-state expression evaluated by immunoblot relative to control (DMSO vehicle) Results are expressed as mean ± SEM of at least three independent experiments; *p < 0.05 and §p < 0.01 from DMSO (vehicle control). […]
Taqman Real-time PCR reactions were performed using 1.5 µg of total RNA, using High Capacity RNA to cDNA kit, according to the manufacturer`s instruction. […] The comparative threshold cycle method was used to calculate the amplification factor, where the threshold cycle (Ct) is defined as the cycle number at which the fluorescence passes the fixed threshold intensity level. KRAS expression levels in different samples were calculated on the basis of ΔΔCt method. […]
Hoechst labeling of cells was used to detect apoptotic nuclei by evaluation of nuclear morphology under fluorescence microscopy. […] Fluorescent nuclei were scored and categorized according to the condensation and staining characteristics of […]

[2] = system: KRAS21R (DNA, G4) AGGGCGGTGTGGGAAGAGGGA; assay: spectrofluorimetric titration, one-site Hill slope fit; conditions: 60 mM K+, K-cacodylate pH 7.4, 25 °C, 1 μM compound, apparent, SD ≤ 0.2 × 10^6
[3] = system: KRAS32R (DNA, G4) AGGGCGGTGTGGGAAGAGGGAAGAGGGGGAGG; assay: FRET melting; conditions: 60 mM K+; K-cacodylate pH 7.4; 0.2 μM DNA, 1 μM compound; SD ≤ 0.2
[4] = system: HT21 (DNA, G4) GGGTTAGGGTAGGGTTAGGG; assay: circular dichroism; conditions: 60 mM K+; K-cacodylate pH 7.4, 25 °C; hybrid G4 changes to antiparallel
KRAS21R G4 = assay: FRET melting competition assay, labelled KRAS21R; format: binding, human; conditions: ligand 1 μM, labelled KRAS21R 0.2 μM
Protocol: To assess selectivity of the IQc compounds 2d and 3e to different DNA sequences, we performed competitive FRET experiments with 0.2 μM of labelled KRAS21R and F21T G4 and increasing concentrations of two non-fluorescent competitors, 26mer ds-DNA or the human telomeric sequence (HT21). A decrease in ΔTm indicates the displacement of the ligand from labelled G4 by the competitor DNA.
Figure 3 FRET melting competition assay data for (a) 2d and (b) 3e (1 μM) in complex with KRAS21R and F21T G4s (0.2 μM), with increasing concentrations of non-labeled 26ds, HT21 or KRAS21R (0.4 to 25 μM) competitor, in K-cacodylate buffer (pH 7.4, 60 mM K^+).
Oligonucleotide sequences were purchased from Eurofins MWG Synthesis GmbH, Germany or STAB VIDA Genomics Lab, Caparica, Lisbon, Portugal. The labelled oligonucleotides used in the FRET assays had attached the donor fluorophore FAM (6-carboxyfluorescein) and the acceptor fluorophore TAMRA (6-carboxytetramethylrhodamine): KRAS21R: 5′-FAM-[…]-TAMRA-3′; KRAS32R: 5′-FAM-[…]-TAMRA-3′; UTR-1: 5′-FAM-GCGGCGGCGGAGG-TAMRA-3′; UTR-2: 5′-FAM-[…]-TAMRA-3; T-Loop:5′-FAM-[…]-TAMRA-3′; F21T: 5′-FAM-[…]-TAMRA-3′. Non-labelled oligonucleotides were used in FRET competition assays and in the spectroscopic studies: ds26: - d(5′-CAATCGGATCGAATT CGATCCGATTG-3′); KRAS21R: 5′-[…]-3′; HT21: 5′-[…]-3′. […]

Cn1cc2c3ccccc3nc-2c2cc(Br)ccc21 [2a, 2-bromo-5-methyl-indolo[3,2-c]quinoline]
Ka [1]: 800000 M⁻¹

CCN(CC)CCCNc1ccc2[nH]c3c(c[n+](C)c4ccc(NCCCN(CC)CC)cc34)c2c1.[Cl-] [3d]
Reduction of KRAS mRNA steady-state levels, SW620 (KRAS mRNA in SW620 cells): 25%

CCN(CC)CCCNc1ccc2c(c1)c1[nH]c3ccccc3c1c[n+]2C [2d]
Reduction of KRAS mRNA steady-state levels, SW620 (KRAS mRNA in SW620 cells): 90%
Ka ([2]; Hill 2.0): 4.4e+06 M⁻¹
ΔTm [3]: 10.7 °C

CCN(CC)CCCNc1ccc2c(c1)[nH]c1c2c[n+](C)c2ccc(NCCCN(CC)CC)cc12.[Cl-] [3e]
binding [4]: yes
Ka ([2]; Hill 2.4): 8.6e+06 M⁻¹
ΔTm [3]: 17.0 °C
Concentration of HT21 required to displace ligand from its complex with KRAS21R (KRAS21R G4): > 10 µM
Fold higher concentration of HT21 required to displace ligand from its complex with KRAS21R (KRAS21R G4): more than 50 fold

Source: PMC5382548 (Scientific Reports, 2015)
